From paper PMC4502414, “Transforming berberine into its intestine-absorbable form by the gut microbiota” (Scientific Reports, 2015)
Where two headings read alike, the source gives them in different places.

Legend:
[1] = Plasma concentration of BBR in KK-Ay mice treated or untreated with antibiotics; format: in vivo; settings: for Cmax at 14 day: KK-Ay, mouse, plasma, oral, 200 mg/kg, BBR 200 mg/kg qd
Method: Blood samples of the mice in Groups 1 and 2 were collected into a heparinized tube 30 min after the oral administration of BBR. The samples were taken at days 1, 3, 6, 10 and 14 of the BBR treatment course. The samples were centrifuged at 10,000 g for 5 min, and the plasma was collected and stored at −80 °C before analysis.

[2] = design: method as in PMID 21637946, PMID 12530470; settings: cited from earlier work
[3] = Plasma pharmacokinetics after oral dhBBR or BBR in rats; format: in vivo, SD rats; settings: SD, rat, plasma, po, 200 mg/kg
Method: The plasma (100 μl) was precipitated with 100 μl of acetonitrile after addition of 10 μl of the internal standard. BBR served as a control in the study. The plasma concentrations of BBR and dhBBR were determined using LC-MS/MS 8040 and LC-MS/MS 8050.

[4] = design: method as in PMID 24174332; settings: patients; cited from earlier work
[5] = 72-h cumulative fecal excretion of BBR and dhBBR in pseudo germ-free (PGF) and conventional rats; format: in vivo, SD rats; settings: oral BBR 200 mg/kg
Method: Male SD rats (180–200 g) were orally treated with cefadroxil (100 mg/kg), terramycin (300 mg/kg) and erythromycin (300 mg/kg) twice a day for 3 days, and pharmacokinetic examination was performed 2 days after final administration. The colon contents of the rats were collected on the first and third days after the final treatment with antibiotics, and the germ-free status was confirmed by culturing fecal samples aerobically on a nutrient agar culture medium. Fecal samples from non-antibiotic-exposed rats served as control samples. Before oral administration of a single dose of BBR (200 mg/kg), the PGF rats were fasted overnight with free access to water. […] The samples were stored at −20 °C for further analysis.

[6] = Plasma BBR in pseudo germ-free versus conventional rats after oral BBR; format: in vivo; settings: male, SD, rat, 200 mg/kg, oral BBR 200 mg/kg
Method: Male SD rats (180–200 g) were orally treated with cefadroxil (100 mg/kg), terramycin (300 mg/kg) and erythromycin (300 mg/kg) twice a day for 3 days, and pharmacokinetic examination was performed 2 days after final administration. The colon contents of the rats were collected on the first and third days after the final treatment with antibiotics, and the germ-free status was confirmed by culturing fecal samples aerobically on a nutrient agar culture medium. Fecal samples from non-antibiotic-exposed rats served as control samples.
Before oral administration of a single dose of BBR (200 mg/kg), the PGF rats were fasted overnight with free access to water. Blood samples were collected from the posterior orbital venous plexus into a heparinized tube at 0, 0.25, 0.5, 1, 1.5, 2, 3, 4, 6, 8, and 12 h post-BBR treatment and then subjected to the procedure described above. Fecal samples were also collected at 0, 6, 12, 24, 36 and 48 h post-BBR treatment. The samples were stored at −20 °C for further analysis.

[7] = Therapeutic effect of BBR on hyperglycemia and hyperlipidemia in KK-Ay mice with or without antibiotics; format: in vivo
Excerpt: KK-Ay mice with type 2 diabetes (female, 12 ± 1 weeks of age) were purchased from the Institute of Laboratory Animal Sciences, Chinese Academy of Medical Sciences (Beijing, China). […] Antibiotics at the doses described above were orally administered to KK-Ay mice for 3 days before the BBR treatment course, and the pseudo germ-free (PGF) state of the experimental mice was confirmed (see above). Four groups (n = 6 for each group) were used in the experiment: Group1, PGF KK-Ay mice orally treated with antibiotics (qd, at the dosage described above) plus BBR (200 mg/kg, qd) for 2 weeks; Group 2, untreated KK-Ay mice orally treated with BBR (200 mg/kg, qd) for 2 weeks; Group 3, PGF KK-Ay mice orally treated with antibiotics (qd, at a dosage identical to that for Group 1) for 2 weeks; Group 4, untreated KK-Ay mice. The antibiotics were administered in the morning and BBR was administered in the afternoon. All the animals were fed a high-fat diet. […] All of the mice were euthanized on day 14, and blood samples were taken to measure the fasting serum glucose (Glu), triglyceride (TG) and cholesterol (CHO) using Glu, TG and CHO reagent kits (Biosino Bio-Technology and Science INC, Beijing China), respectively. C57BL/6J mice were used as a wild-type reference. The body weights of the mice before, during and after treatments were recorded for 14 days.

[8] = Absorption of BBR and dhBBR in Caco-2 cells; format: in vitro ADME; settings: human
Method: A Caco-2 cell assay was conducted using a method reported previously. […] To determine the rate of drug transport in the apical-to-basolateral direction, 200 μl of the compound working solution was added to the filter well (apical compartment), and 800 μl of HBSS was added to the receiver plate (basolateral compartment). Accordingly, to determine the rate of drug transport in the basolateral-to-apical direction, 800 μl of the compound working solution was added to each well of the receiver plate and 200 μl of HBSS was added to the filter well. The plates were incubated for 30 min at 37 °C with shaking at 150 rpm on a rotary shaker. At the end of the transport period, aliquots of 50 μl were removed directly from the apical and basolateral wells and transferred to wells of new plates. Four volumes of cold methanol containing internal standards were added into each well. The samples were centrifuged at 16,000 g for 15 min. Aliquots of 200 μl of the supernatant were used for the LC-MS/MS analysis.

17 intestinal bacteria = experiment: Anti-bacterial test (MIC, broth microdilution); format: cell-based; settings: 24 h
Method: Seventeen bacterial strains (see above) were used in the susceptibility test for BBR and dhBBR. The bacterial strains, which belong to different species of bacteria, were collected and identified as described above. The minimum inhibitory concentrations (MICs) of BBR and dhBBR after 24 h were determined through the broth microdilution method according to the CLSI guidelines. BBR and dhBBR were tested at a concentration range of 8 to 512 μg/ml. The MIC was defined as the lowest concentration of an agent that prevents turbidity. The experiment was repeated three times. All of the bacterial strains tested in this study (S. aureus ATCC 29213, E. faecalis ATCC 29212, E. coli ATCC 25922, S. aureus 08-43, S. epidermidis 12-12, E. faecium 13-01, E. faecalis 13-01, E. coli 06-05, K. pneumoniae 13-14, Ps. aeruginosa 13-10, A. baumannii 13-02, E. cloacae 13-12, and P. mirabilis 13-01) were facultative anaerobes, of which S. aureus ATCC 29213, E. faecalis ATCC 29212 and E. coli ATCC 25922 were standard strains from ATCC (USA) and served as quality controls. L. casei ATCC 334, L. acidophilus ATCC 4356, B. longum ATCC 15707, and B. breve ATCC 15700 were also tested in this anti-bacterial experiment. Ampicillin was used as the positive control.

[9] = design: method as in PMID 18285556; settings: cited from earlier work
[10] = Effect of heat inactivation and vitamin C on dhBBR-to-BBR transformation in rat small intestine homogenate; format: in vitro ADME; settings: added to the reaction solution
Method: The rats (n = 3) were sacrificed to obtain fresh small intestine homogenate. The homogenate was then boiled for 2 min to inactivate all of the enzymes. After pre-incubation at 37 °C for 2 min, 5 μl of dhBBR (10 mM, dissolved in DMSO) was added into the inactivated homogenate, and fresh homogenate (active one) was used as a reference. The sample was mixed thoroughly and centrifuged at 16,000 g for 5 min. The supernatant was transferred into new tubes, treated with 500 μl of acetonitrile, and then centrifuged. Twenty-microliter aliquots were used for the HPLC analysis.
To examine the oxidative reaction, 100 μl of vitamin C was pre-incubated with the inactivated homogenate; the final concentrations of vitamin C were 95, 9.5 and 0.95 mM. The superoxide anion in the sample was detected with an O2^− ELISA kit (Beijing Biolab Co., Ltd., Beijing, China; lot: 201404) following the manufacturer’s instructions.

nitroreductase = biological target: T1, nitroreductase (Escherichia coli, UniProt P38489); experiment: Nitroreductase-mediated BBR reduction, cell-free incubation; format: biochemical; settings: 2-IBA 100 μM, nitroreductase-containing cell-free incubation; read-out: inhibition rate of BBR-to-dhBBR conversion
T1 construct: purchased Sigma-Aldrich Co. (Shanghai, China); host or cells: Escherichia coli
Method: (§1) BBR was incubated with nitroreductase in intestinal bacteria cultures. The reaction mixture consisted of BBR (50 μg/ml), an NADPH-regenerating system and nitroreductase (5 μg/ml) in a final volume of 1 ml under the protection of N2. After incubation for 0, 2, 4, 6 and 12 h at 37 °C, the reaction was terminated by the addition of 1 ml of ice-cold acetonitrile. The samples were then extracted with 1 ml of ethyl acetate after adding 1 ml of 0.5 M sodium hydroxide solution. The organic phase was evaporated to dryness under a nitrogen flow in a water bath at 40 °C. The residue was dissolved with 200 μl of the mobile phase for further analysis. 2-Iodosobenzoic acid (2-IBA), a specific inhibitor of nitroreductase, was used to verify the role of bacterial nitroreductase.

[11] = tested on: mixture of rat gut bacteria; experiment: BBR-to-dhBBR conversion in rat gut bacteria mixture with nitroreductase inhibitor; format: cell-based; settings: 2-IBA in BBR incubation with mixture of rat gut bacteria, 12 h
Method: as §1

[12] = Effect of ions on the dhBBR-to-BBR transformation; settings: EDTA-2Na 10 mM
Method: dhBBR was added into the reaction solution containing FeCl3, CuCl2, ZnCl2, and NaCl (at concentrations of 0.033, 0.333 and 3.33 mM, respectively). Ethylenediaminetetraacetic acid disodium salt (EDTA-2Na, 10 mM), a chelating agent for metal ions, was used in the test.

T1 sequence (P38489 whole entry): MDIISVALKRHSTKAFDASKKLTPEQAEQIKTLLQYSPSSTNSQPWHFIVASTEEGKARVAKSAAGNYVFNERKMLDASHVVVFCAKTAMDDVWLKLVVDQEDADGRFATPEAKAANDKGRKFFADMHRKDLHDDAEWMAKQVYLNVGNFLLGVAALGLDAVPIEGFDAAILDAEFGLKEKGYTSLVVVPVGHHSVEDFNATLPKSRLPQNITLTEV

With `COc1ccc2cc3[n+](cc2c1OC)CCc1cc2c(cc1-3)OCO2` [BBR, berberine] the Cmax at 14 day ([1]; day 14, mice treated with antibiotics (Group 1)) was 28.3 ± 3.41 ng/mL, the Cmax at 14 day ([1]; day 14, mice without antibiotics (Group 2)) was 178 ± 57.6 ng/mL and the “Folds of Cmax [BBR / (BBR+Antibiotics)]” value ([1]; day 14) was 6.4 fold. For the same molecule, the “Folds of Cmax, Group 2 over Group 1” value ([1]; throughout days 1, 3, 6, 10 and 14) was 3.5-6.5 fold, the water solubility [2] was “poor water solubility” and the AUC(0-t) ([3]; oral BBR 200 mg/kg, Fig. 3c curve 2, read-out: AUC(0-t) of BBR in plasma) was 54.6 ng·h/mL. For the same molecule, the Cmax ([3]; oral BBR 200 mg/kg, Fig. 3c curve 2, read-out: Cmax of BBR in plasma) was 16.1 ng/mL, the AUC(0-t) ([3]; oral dhBBR 200 mg/kg, read-out: AUC(0-t) of BBR in blood) was 262 ng·h/mL and the Cmax ([3]; oral dhBBR 200 mg/kg, read-out: Cmax of BBR in blood) was 52.5 ng/mL. For the same molecule, the “reduction of LDL-c level” value [4] was 10–25%, the “reduction of fasting blood glucose level” value [4] was 21–36% and the “reduction of triglyceride level” value [4] was 20–35%. For the same molecule, the “total BBR in feces over 72 h, % of the administered amount” value ([5]; PGF rats) was 27.81%, the “total BBR in feces over 72 h, % of the administered amount” value ([5]; untreated (conventional) rats) was 18.67% and the AUC(0-t) ([6]; conventional SD rat) was 70.9 ng·h/mL. The Cmax ([6]; conventional SD rat) was 26 ng/mL, the AUC(0-t) ([6]; pseudo germ-free rat) was 11.9 ng·h/mL and the Cmax ([6]; pseudo germ-free rat) was 6.92 ng/mL. For the same molecule, the “reduction of therapeutic efficacy of BBR on cholesterol by antibiotics” value ([7]; Group 1 vs Group 2, day 14) was 44%, the “reduction of therapeutic efficacy of BBR on triglyceride by antibiotics” value ([7]; Group 1 vs Group 2, day 14) was 53% and the “reduction of therapeutic efficacy of BBR on fasting blood glucose by antibiotics” value ([7]; antibiotics before and during BBR (Group 1) vs BBR only (Group 2), day 14) was 42%. The efflux ratio at 30 min, 5 μM ([8]; Caco-2, pH 7.4, read-out: efflux ratio (ER)) was 32.4, the Papp A→B at 30 min, 5 μM ([8]; pH 7.4, Caco-2, 5 μM, 30 min) was 0.38 ×10⁻⁶ cm/s and the MIC (17 intestinal bacteria; span over 17 strains, read-out: minimal inhibitory concentration (MIC) on the 17 bacteria) was > 128 µg/mL. The MIC (17 intestinal bacteria; read-out: MIC, most of the 17 tested strains) was ≥ 512 µg/mL.
For dihydroberberine sulfate, the “absorption in the intestine compared with BBR” value [9] is listed as “better absorption”.
For `O=C1O[C@H]([C@@H](O)CO)C(O)=C1O` [vitamin C], the “effect on dhBBR-to-BBR reversion” value [10] was “almost completely terminated”.
For `O=Ic1ccccc1C(=O)O` [2-IBA, 2-iodosobenzoic acid], the inhibition at 100 µM (nitroreductase) was 88.3% and the “inhibition of dhBBR production” value [11] was 78.7%.
For `O=C([O-])CN(CCN(CC(=O)O)CC(=O)O)CC(=O)[O-].[Na+].[Na+]` [EDTA-2Na, Ethylenediaminetetraacetic acid disodium salt], the “reduction of dhBBR-to-BBR oxidization” value [12] was 5%.
